Measurements taken from patent publication US6960601B2, “Preparation and use of imidazole derivatives for treatment of obesity” (Bayer Pharmaceuticals Corporation, priority 2001, dated 2005).

Legend:
[1] = Measurement of brain exposure; assay type: in vivo; settings: rat, brain homogenate, oral; 10 mg/kg p.o.; brains collected at 2 hours post-dosing; male obese Zucker fa/fa rats; read-out: brain homogenate exposure level
Experimental: Measurement of Brain Exposure
Male obese Zucker fa/fa rats were administered compounds, typically at 10 mg/kg p.o., and then brains were collected at 2 hours post-dosing for determination of brain concentration. Brains were weighed and homogenized with 4 mL 10 mM ammonium acetate buffer (pH 3), and the brain tissue homogenate samples were extracted via protein precipitation with acetonitrile. Samples were vortexed, centrifuged, and analyzed by liquid chromatography utilizing mass spectrometer selective detection (LC/MS/MS) using the heated nebulizer interface. Samples were quantitated using weighted (1/x^2) linear internal standard calibration curve. For example, when 1-(4-chlorophenyl)-2-(2-chlorophenyl)-N-(1-piperidinyl)-5-butyl-1H-imidazole-4-carboxamide was dosed at 10 mg/kg p.o., a brain homogenate exposure level of approximately 200 nM was determined; when 2-(2-chlorophenyl)-1-(4-chlorophenyl)-5-ethyl-N-[(1S,2S)-2-hydroxycyclohexyl]-1H-imidazole-4-carboxamide was dosed at 10 mg/kg p.o., a brain homogenate exposure level of approximately 200 nM was determined.

obese Zucker fa/fa rats = test: Chronic feeding assay (body weight, food and water consumption); assay type: in vivo, rat; settings: 10 mg/kg p.o. once a day, day 6 of treatment
From the text: Evaluation of Compound's Efficacy on the Reduction of Body Weight and Food and Water Consumption in Obese Zucker fa/fa Rats
The purpose of this protocol is to determine the effect of chronic administration of an unknown compound on body weight and food and water consumption in obese Zucker fa/fa rats. Obese Zucker fa/fa rats are frequently used in the determination of compound efficacy in the reduction of body weight. This animal model has been successfully used in the identification and characterization of the efficacy profile of compounds that are or have been used in the management of body weight in obese humans (see, e.g., Al-Barazanji et al., Obes Res. 8:317-323, 2000; Assimacopoulos-Jeannet et al., Am. J. Physiol. 260(2 Pt 2):R278-283, 1991; Dryden et al., Horm. Metab. Res. 31:363-366, 1999; Edwards and Stevens, Pharmacol. Biochem. Behav. 47:865-872, 1994; Grinker et al., Pharmacol. Biochem. Behav. 12:265-275, 1980).
A typical study includes 60-80 male Zucker fa/fa (n=10/treatment group) with an average body weight of approximately 550 g. Rats are kept in standard animal rooms under controlled temperature and humidity and a 12/12 light dark cycle. Water and food are continuously available. Rats are single-housed in large rat shoeboxes containing grid floor. Animals are adapted to the grid floors and sham-dosed with study vehicle for at least four days before the recording of two-days baseline measurement of body weight and 24-hr food and water consumption. Rats are assigned to one of 6-8 treatment groups based upon their body weight on baseline. The groups are set up so that the mean and standard error of the mean of body weight were similar.
Animals are orally gavaged (2 mL/kg) daily before the dark phase of the LD/cycle for a pre-determined number of days (typically 6-14 days) with their assigned dose/compound. At this time, body weight, food and water consumption are measured. On the final day, animals are euthanized by CO2 inhalation, and the body weight is measured.

Row | Structure (SMILES) | concentration at 2 h [1] [nM] | increase in body weight from baseline (obese Zucker fa/fa rats) | reduction in body weight gain as compared to the vehicle control group (obese Zucker fa/fa rats) | melting point [°C]
1 | CCCCc1c(C(=O)NN2CCCCC2)nc(-c2ccccc2Cl)n1-c1ccc(Cl)cc1 [1-(4-chlorophenyl)-2-(2-chlorophenyl)-N-(1-piperidinyl)-5-butyl-1H-imidazole-4-carboxamide] | ~200 |  |  | 
2 | CCc1c(C(=O)N[C@H]2CCCC[C@@H]2O)nc(-c2ccccc2Cl)n1-c1ccc(Cl)cc1 [2-(2-chlorophenyl)-1-(4-chlorophenyl)-5-ethyl-N-[(1S,2S)-2-hydroxycyclohexyl]-1H-imidazole-4-carboxamide] | ~200 |  |  | 
3 | O=C(N[C@H]1CCCC[C@@H]1O)c1cn(-c2ccc(Cl)cc2)c(-c2ccccc2Cl)n1 [2-(2-chlorophenyl)-1-(4-chlorophenyl)-N-[(1S,2S)-2-hydroxycyclohexyl]-1H-imidazole-4-carboxamide] |  | approximately 2.4% | approximately 50% | 
4 | Cl.O=C(NNc1ccc(C(F)(F)F)cc1)c1cn(-c2ccc(Cl)cc2)c(-c2ccccc2Cl)n1 [2-(2-chlorophenyl)-1-(4-chlorophenyl)-N′-[4-(trifluoromethyl)phenyl]-1H-imidazole-4-carbohydrazide hydrochloride] |  | approximately 1.8% | approximately 60% | 
5 | Cc1c(C(=O)NC2CCCCC2)nc(-c2ccccc2Cl)n1-c1ccc([N+](=O)[O-])cc1 [Example 23, N-cyclohexyl-2-(2-chlorophenyl)-5-methyl-1-(4-nitrophenyl)-1H-imidazole-4-carboxamide] |  |  |  | 217 to 220
